Data as given in article PMC8192900, “Label-free high-throughput screening assay for the identification of norepinephrine transporter (NET/SLC6A2) inhibitors” (Scientific Reports, 2021).
Where two headings read alike, the source gives them in different places.

Assays:
JumpIn-NET cells [1] = assay: Effect of NET inhibitor alone on normalized Cell Index during 1 h pretreatment (xCELLigence); format: cell-based, human; details: +dox JumpIn-NET cells; for Effect on nCI during pretreatment at highest tested concentration: 10 µM
JumpIn-NET cells [2] = assay: TRACT assay (xCELLigence impedance): substrate-induced cellular response, apparent substrate potency; format: cell-based, human; details: for Decrease of apparent potency in dox-treated compared to vehicle-treated cells: +dox vs −dox JumpIn-NET cells; for EC50: Homo sapiens
[3] = doxycycline-treated (+dox) JumpIn-NET cells, 1 h pretreatment with 1 µM nisoxetine, read-out: Apparent potency pEC50 ± SEM (converted)
[4] = vehicle-treated (−dox) JumpIn-NET cells, no nisoxetine pretreatment, net AUC first 30 min, read-out: Apparent potency pEC50 ± SEM (converted)

SMILES | Effect on nCI during pretreatment at highest tested concentration (JumpIn-NET cells [1]) | Decrease of apparent potency in dox-treated compared to vehicle-treated cells (JumpIn-NET cells [2]) | EC50 (JumpIn-NET cells [2]; [3]) [nM] | EC50 (JumpIn-NET cells [2]; [4]) [nM] | also measured
CNCCC(Oc1ccccc1OC)c1ccccc1.Cl (centres unmarked) [Nisoxetine, Nisoxetine hydrochloride] | transient increase in nCI | – | – | – | Effect on nCI during the 1 h pretreatment (JumpIn-NET cells [1]; 1 µM): did not affect the nCI
CNCC[C@@H](Oc1ccccc1C)c1ccccc1.Cl [Atomoxetine, atomoxetine hydrochloride] | transient increase in nCI | – | – | – | –
CC(NC(C)(C)C)C(=O)c1cccc(Cl)c1.Cl (centres unmarked) [Bupropion, bupropion hydrochloride] | transient increase in nCI | – | – | – | –
CNC[C@H](O)c1ccc(O)c(O)c1.O=C(O)C(O)C(O)C(=O)O [EP, (−)-epinephrine (+)-bitartrate salt] | – | decreased tenfold | – | – | Basal response in vehicle-pretreated cells, higher than that of NE (JumpIn-NET cells [2]; 1 µM substrate (EC20), +dox cells, no inhibitor): approximately 60%; EC50 (JumpIn-NET cells [2]; read-out: Apparent potency pEC50 ± SEM, doxycycline-treated (+dox) JumpIn-NET cells, 1 h pretreatment with 1 µM nisoxetine (converted)): 501 nM; EC50 (JumpIn-NET cells [2]; read-out: Apparent potency pEC50 ± SEM, doxycycline-treated (+dox) JumpIn-NET cells, no nisoxetine pretreatment (converted)): 3980 nM; EC50 (JumpIn-NET cells [2]; read-out: Apparent potency pEC50 ± SEM, vehicle-treated (−dox) JumpIn-NET cells, no nisoxetine pretreatment (converted), net AUC first 30 min): 398 nM
Cl.NCCc1ccc(O)c(O)c1 [DA, dopamine hydrochloride] | – | twofold lower | 39800 | 7940 | –
